Reference: PubChem BioAssay (NCI)
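How tested: cells in 96-well plates exposed to compound for 48 hours at five concentrations. TGI marks complete inhibition of growth.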

Columns and labels:
Assay in all cases: NCI tumour cell line growth inhibition, 48 h
SNB-75 CNS = system: SNB-75 CNS
MDA-MB-231 breast = system: MDA-MB-231 breast
DU-145 prostate = system: DU-145 prostate
NCI-H226 lung = system: NCI-H226 lung
LOX IMVI melanoma = system: LOX IMVI melanoma
SW-620 colon = system: SW-620 colon
786-0 renal = system: 786-0 renal
UACC-257 melanoma = system: UACC-257 melanoma
SF-295 CNS = system: SF-295 CNS
A549 NSCLC = system: A549 NSCLC
SK-OV-3 ovarian = system: SK-OV-3 ovarian
M14 melanoma = system: M14 melanoma
A498 renal = system: A498 renal
MOLT-4 leukemia = system: MOLT-4 leukemia
HCT-116 colon = system: HCT-116 colon
SK-MEL-28 melanoma = system: SK-MEL-28 melanoma
HT29 colon = system: HT29 colon
NCI-H460 lung = system: NCI-H460 lung
OVCAR-3 ovarian = system: OVCAR-3 ovarian
UO-31 renal = system: UO-31 renal
MDA-N = system: MDA-N
CAKI-1 renal = system: CAKI-1 renal
HOP-92 NSCLC = system: HOP-92 NSCLC
NCI-H23 lung = system: NCI-H23 lung
OVCAR-8 ovarian = system: OVCAR-8 ovarian
MALME-3M melanoma = system: MALME-3M melanoma
SNB-19 CNS = system: SNB-19 CNS
PC-3 prostate = system: PC-3 prostate
SN12C renal = system: SN12C renal
T-47D breast = system: T-47D breast
NCI-H522 lung = system: NCI-H522 lung
HCC-2998 colon = system: HCC-2998 colon
OVCAR-5 ovarian = system: OVCAR-5 ovarian
MDA-MB-435 = system: MDA-MB-435
BT-549 breast = system: BT-549 breast
RXF 393 renal = system: RXF 393 renal
OVCAR-4 ovarian = system: OVCAR-4 ovarian
SF-539 CNS = system: SF-539 CNS
EKVX NSCLC = system: EKVX NSCLC
SK-MEL-2 melanoma = system: SK-MEL-2 melanoma
IGROV1 ovarian = system: IGROV1 ovarian
NCI/ADR-RES ovarian = system: NCI/ADR-RES ovarian
HCT-15 colon = system: HCT-15 colon
K-562 leukemia = system: K-562 leukemia
COLO 205 colon = system: COLO 205 colon
MCF7 breast = system: MCF7 breast
HS 578T breast = system: HS 578T breast
SK-MEL-5 melanoma = system: SK-MEL-5 melanoma
HL-60(TB) leukemia = system: HL-60(TB) leukemia
CCRF-CEM leukemia = system: CCRF-CEM leukemia
SF-268 CNS = system: SF-268 CNS
ACHN renal = system: ACHN renal
TK-10 renal = system: TK-10 renal
KM12 colon = system: KM12 colon
HOP-62 NSCLC = system: HOP-62 NSCLC
U251 CNS = system: U251 CNS
UACC-62 melanoma = system: UACC-62 melanoma
SR leukemia = system: SR leukemia
RPMI-8226 leukemia = system: RPMI-8226 leukemia

Measured: TGI

CSCCC(NC(=O)Cc1ccc(C(=O)c2ccccc2)cc1)C(=O)O (stereo not given)
> 100 µM: SNB-75 CNS | MDA-MB-231 breast | DU-145 prostate | NCI-H226 lung | LOX IMVI melanoma | SW-620 colon | 786-0 renal | UACC-257 melanoma | SF-295 CNS | A549 NSCLC | SK-OV-3 ovarian | M14 melanoma | A498 renal | MOLT-4 leukemia | HCT-116 colon | SK-MEL-28 melanoma | HT29 colon | NCI-H460 lung | OVCAR-3 ovarian | UO-31 renal | MDA-N | CAKI-1 renal | HOP-92 NSCLC | NCI-H23 lung | OVCAR-8 ovarian | MALME-3M melanoma | SNB-19 CNS | PC-3 prostate | SN12C renal | T-47D breast | NCI-H522 lung | HCC-2998 colon | OVCAR-5 ovarian | MDA-MB-435 | BT-549 breast | RXF 393 renal | OVCAR-4 ovarian | SF-539 CNS | EKVX NSCLC | SK-MEL-2 melanoma | IGROV1 ovarian | NCI/ADR-RES ovarian | HCT-15 colon | K-562 leukemia | COLO 205 colon | MCF7 breast | HS 578T breast | SK-MEL-5 melanoma | HL-60(TB) leukemia | CCRF-CEM leukemia | SF-268 CNS | ACHN renal | TK-10 renal | KM12 colon | HOP-62 NSCLC | U251 CNS | UACC-62 melanoma

COC(=O)C1=C(C)N2[C@H](C(=O)O)CO[C@@]2(C)[C@H](C(=O)OC)[C@H]1c1cccc([N+](=O)[O-])c1
> 100 µM: SNB-75 CNS | MDA-MB-231 breast | DU-145 prostate | NCI-H226 lung | SR leukemia | SW-620 colon | 786-0 renal | UACC-257 melanoma | SF-295 CNS | A549 NSCLC | SK-OV-3 ovarian | M14 melanoma | A498 renal | MOLT-4 leukemia | HCT-116 colon | SK-MEL-28 melanoma | HT29 colon | NCI-H460 lung | OVCAR-3 ovarian | UO-31 renal | MDA-N | CAKI-1 renal | HOP-92 NSCLC | NCI-H23 lung | OVCAR-8 ovarian | MALME-3M melanoma | SNB-19 CNS | RPMI-8226 leukemia | PC-3 prostate | SN12C renal | T-47D breast | NCI-H522 lung | HCC-2998 colon | OVCAR-5 ovarian | MDA-MB-435 | BT-549 breast | RXF 393 renal | OVCAR-4 ovarian | SF-539 CNS | EKVX NSCLC | SK-MEL-2 melanoma | IGROV1 ovarian | NCI/ADR-RES ovarian | HCT-15 colon | K-562 leukemia | COLO 205 colon | MCF7 breast | HS 578T breast | SK-MEL-5 melanoma | CCRF-CEM leukemia | SF-268 CNS | ACHN renal | TK-10 renal | KM12 colon | HOP-62 NSCLC | U251 CNS | UACC-62 melanoma

CC(=O)OCC1OC(n2c(=O)[nH]c(=O)c3sccc32)C(Br)C1OC(C)=O (stereo not given)
> 100 µM: SNB-75 CNS | MDA-MB-231 breast | DU-145 prostate | NCI-H226 lung | LOX IMVI melanoma | SR leukemia | SW-620 colon | 786-0 renal | UACC-257 melanoma | SF-295 CNS | A549 NSCLC | M14 melanoma | A498 renal | MOLT-4 leukemia | HCT-116 colon | SK-MEL-28 melanoma | HT29 colon | NCI-H460 lung | OVCAR-3 ovarian | UO-31 renal | MDA-N | CAKI-1 renal | HOP-92 NSCLC | NCI-H23 lung | OVCAR-8 ovarian | MALME-3M melanoma | SNB-19 CNS | RPMI-8226 leukemia | PC-3 prostate | SN12C renal | NCI-H522 lung | HCC-2998 colon | OVCAR-5 ovarian | MDA-MB-435 | BT-549 breast | RXF 393 renal | OVCAR-4 ovarian | SF-539 CNS | EKVX NSCLC | SK-MEL-2 melanoma | IGROV1 ovarian | NCI/ADR-RES ovarian | HCT-15 colon | K-562 leukemia | COLO 205 colon | MCF7 breast | HS 578T breast | SK-MEL-5 melanoma | HL-60(TB) leukemia | CCRF-CEM leukemia | SF-268 CNS | ACHN renal | TK-10 renal | KM12 colon | HOP-62 NSCLC | U251 CNS
